Laboratory results: patent US20250074910A1, “MENIN INHIBITOR AND USE THEREOF” (HITGEN INC., priority 2021, published 2025)

Legend:
[1] = target: Menin/MLL-4-43 peptide interaction (Homo sapiens (Human), UniProt O00255); experiment: Menin-MLL interaction inhibitory activity assay (fluorescence polarization competition); format: binding; conditions: FITC-MLL4-43-peptide, Menin recombinant protein
Method: Test Example 1: Menin-MLL Interaction Inhibitory Activity Assay
The inhibition of Menin/MLL-4-43 peptide interaction by small molecule inhibitors was quantitatively detected by fluorescence polarization competition assay. The experiment was performed in a 384-well plate (Corning, Cat #3575) using a reaction buffer consisting of 50 mM Tris, pH 7.5, 50 mM NaCl, and 1 mM DTT. A 40 μL reaction system included 10 μL of 8 nM Menin recombinant protein and 10 μL of the test compound at different concentrations. The compound was pre-incubated with Menin protein for 15 min, and then 20 μL of 10 nM FITC-MLL4-43-peptide was added. After incubation on a shaker at 25° C. for 60 min, the fluorescence polarization signal (FP 485 520 520) was read using BMG PHERAStar detection. The experimental data was analyzed and processed by GraphPad Prism 6 software to obtain the IC50 value. The control compound 1 was prepared by referring to the method of Example 64 in WO2017214367.

MV4-11 = experiment: Cell proliferation inhibition (CellTiter-Glo), MV4-11; format: cell-based; conditions: MV4-11 cells
Method: (§1) Test Example 2: Test of the Inhibitory Ability of Menin-MLL Interaction Inhibitors on Cell Proliferation
(§2) The inhibitory ability of the compounds of the present disclosure on the proliferation of tumor cell lines (including cell lines containing MLL fusion protein such as MV4-11, MOLM-13, THP-1 and NOMO-1, control cell lines without MLL fusion protein such as HL-60, K562 and MOLM-16, and cell lines containing NPM1 mutation such as OCI-AML3) was evaluated by using the cell viability analysis method. The cells were plated in 96-well plates at a certain concentration (e.g., 5,000-20,000 cells/well), and then an equal volume of culture medium containing 2 times the final concentration of the test compound (the final concentration ranging 10 from 1 nM to 10 μM) was added. The plates were placed in an incubator and cultured at 37° C. and 5% CO2 for 72-168 h. Before the test, an equal volume of CellTiter-Glo® Luminescent reagent was added, and the plate was incubated at room temperature for 10 min before detection using an ELISA reader (BMG LABTECH). The data were analyzed using GraphPad Prism software to obtain the IC50 value and compound fitting curve. The control compound 1 was prepared by referring to the method of Example 64 in WO2017214367.

MOLM-13 = experiment: Cell proliferation inhibition (CellTiter-Glo), MOLM-13; format: cell-based; conditions: Homo sapiens, MOLM-13, 168 h, MOLM-13 cells
Method: as §1, §2

OCI-AML3 = experiment: Cell proliferation inhibition (CellTiter-Glo), OCI-AML3 (NPM1 mutation); format: cell-based; conditions: Homo sapiens, OCI-AML-3, 168 h, OCI-AML3 cells
Method: as §1, §2

[2] = Stability in mouse liver microsomes; format: in vitro ADME; conditions: 1.00 μM compound, NADPH; for half-life at 1 μM: liver microsomes, pH 7.4, 0.5 mg/mL microsomal protein, read-out: Half life T1/2, mouse liver microsomes
Method: (§3) Test Example 3: Test of Stability of Compounds in Liver Microsome
(§4) Test purpose: To determine the stability of some of the compounds of the present disclosure in mouse, dog and human liver microsomes by LC-MS/MS method.
(§5) Test materials: The test drugs were in-house prepared example compounds of the present disclosure; the positive reference compound SNDX-5613 was prepared by the method of Example 253 in patent WO2017214367; the control compound 1 was prepared by the method of Example 64 in WO2017214367; liver microsomes were purchased from CORNING.
(§6) The total volume of each incubation system was approximately 45 μL, and the medium was 100 mM phosphate buffer (PBS, pH 7.4), including liver microsomal protein at a final concentration of 0.5 mg/mL, 1.00 μM compound and 2.00 mM NADPH, and the organic phase content was <1%. Incubation was performed in a 37° C. incubator, and 135 μL of ice-cold acetonitrile was added after 0, 5, 15, 30 and 60 min of reaction to terminate the reaction. The positive control group was incubated with 1.00 μM Ketanserin, 0.5 mg/mL liver microsomal protein and 2.00 mM NADPH in a 37° C. incubator for 0, 5, 15, 30 and 60 min respectively, and then 135 μL of ice-cold acetonitrile was added to terminate the reaction. The 96-well plates were shaken at 600 rpm for 10 min and then centrifuged at 4700 rpm at 4° C. for 15 min. 80 μL of supernatant was mixed with 320 μL of pure water, and the remaining amount of the compound was detected by LC-MS/MS method. The in vitro half life (T½) and intrinsic clearance (CLint) were calculated according to the following formula:
(§7) Intrinsic clearance (Clint)=(0.693/T1/2)×(1/liver microsome concentration)×conversion factor. k is the linear regression slope of the remaining percentage of the ln compound-incubation time.

[3] = Stability in dog liver microsomes; format: in vitro ADME; conditions: dog, liver microsomes, pH 7.4, Dog; 0.5 mg/mL microsomal protein, 1.00 μM compound, NADPH; read-out: Half life T1/2, dog liver microsomes
Method: as §3, §4, §5, §6, §7

[4] = Stability in human liver microsomes; format: in vitro ADME; conditions: 0.5 mg/mL microsomal protein, 1.00 μM compound, NADPH; for half-life at 1 μM: human, liver microsomes, pH 7.4, Human, read-out: Half life T1/2, human liver microsomes
Method: as §3, §4, §5, §6, §7

[5] = Pharmacokinetics test in mouse; format: in vivo, ICR mice; conditions: mice, p.o. 10 mg/kg; for AUC(0-t) / half-life / Cmax: male, ICR, mouse, plasma, po, 10 mg/kg; for Cmax: read-out: Cmax; for F, %: 1 mg/kg for intravenous injection
Description: Test Example 4. In Vivo Pharmacokinetic Study
Test purpose: To determine the pharmacokinetic properties of some of the example compounds of the present disclosure in mice, rats and dogs after single intravenous injection (i.v.) and oral gavage (i.g.) administration by LC-MS/MS method.
Research methods: An appropriate amount of compound was weighed and prepared into a transparent clear solution of a certain concentration using 0.9% sodium chloride injection and 1.5 equivalents of 1M HCl aqueous solution based on the molar number of the compound. After SPF male ICR mice, SPF male SD rats, and male beagle dogs were fasted overnight, the test compound solution was given by intravenous injection and oral gavage at the corresponding dose. Anticoagulated whole blood of the test animals was collected at 5 min, 15 min, 30 min, 1 h, 2 h, 4 h, 8 h, and 24 h after administration, and plasma was separated. Plasma samples at each time point were detected by LC-MS/MS, and the plasma concentration of the compound was determined by the standard curve correction method. Phoenix WinNonlin 5.2 non-compartmental model was used to calculate the pharmacokinetic parameters of terminal elimination half-life (t½), blood peak concentration (Cmax), area under the concentration-time curve (AUC), clearance (CL), and bioavailability (F %), which was directly obtained from the serum concentration results. Blood drug concentration and pharmacokinetic parameters are expressed as mean±standard deviation (X±SD). The specific test protocols for each species are as follows.
Pharmacokinetics Test in Mouse
Test animals: SPF male ICR mice, weighing 25-30 g, 12 mice/compound, purchased from Chengdu Dossy Experimental Animal Co., Ltd.
Test design: On the day of the test, ICR mice were randomly divided into groups according to body weight, fasted but with free water for 12-14 h one day before administration, and fed 2 h after administration.
Preparation of test compound solution: The concentration of the test compound for oral gavage was 1 mg/mL. An appropriate amount of compound was weighed and prepared into a 1 mg/mL transparent clear solution using 0.9% sodium chloride injection and 1.5 equivalents of 1M HCl aqueous solution. The concentration of the test compound for intravenous injection was 0.2 mg/mL. The 1 mg/mL transparent clear solution was diluted to a concentration of 0.2 mg/mL using 0.9% sodium chloride injection. The volume of 1 M HCl solution added was calculated as: volume of 1 M HCl solution added […]=weighed amount of compound (mg)/molecular weight×1.5×1000. The amount added during preparation must not exceed the calculated value.
The test substance was administered as follows: intravenous injection: 1 mg/kg of dose, 5 mL/kg of volume, 6 mice; oral gavage: 10 mg/kg of dose, 10 mL/kg of volume, 6 mice.
Sample collection: Blood (40-50 μl) was collected in anticoagulant tubes sprayed with EDTA-K2 through the orbital venous plexus at 5 min, 15 min, 30 min, 1 h, 2 h, 4 h, 8 h, and 24 h after administration, and centrifuged at 10,000 rpm for 20 min within 1 h (the blood was saved on wet ice before and after centrifugation). The supernatant, which was plasma, was collected and frozen in a refrigerator at −20° C. or below for LC-MS/MS analysis of Full PK of male ICR mice (2 mice per group, 4 blood collection time points per mouse, crossover).

Sequence of Menin/MLL-4-43 peptide interaction (O00255 whole entry, species assumed): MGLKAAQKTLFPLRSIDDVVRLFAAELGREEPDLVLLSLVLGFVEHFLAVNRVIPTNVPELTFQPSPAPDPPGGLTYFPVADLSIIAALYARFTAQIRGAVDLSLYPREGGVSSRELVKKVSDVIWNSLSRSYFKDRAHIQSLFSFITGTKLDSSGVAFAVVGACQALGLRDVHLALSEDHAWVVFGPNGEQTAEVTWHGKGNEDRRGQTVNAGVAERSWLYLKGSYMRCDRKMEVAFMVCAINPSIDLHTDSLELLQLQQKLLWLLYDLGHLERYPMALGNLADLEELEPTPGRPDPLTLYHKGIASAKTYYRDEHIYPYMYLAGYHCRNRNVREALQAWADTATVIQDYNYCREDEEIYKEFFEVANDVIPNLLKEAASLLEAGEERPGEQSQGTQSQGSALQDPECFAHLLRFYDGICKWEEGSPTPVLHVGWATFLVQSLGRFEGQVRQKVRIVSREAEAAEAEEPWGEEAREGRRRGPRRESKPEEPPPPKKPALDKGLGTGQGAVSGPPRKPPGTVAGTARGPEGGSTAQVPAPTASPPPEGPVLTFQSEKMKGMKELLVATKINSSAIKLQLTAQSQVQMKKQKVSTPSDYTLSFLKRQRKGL

Row | SMILES | IC50 [1] | GI50 (MV4-11; Homo sapiens, MV4-11, 72 h) | GI50 (MOLM-13) | GI50 (OCI-AML3) | half-life at 1 μM [2] | half-life at 1 μM [3] | half-life at 1 μM [4] | AUC(0-t) [5] | half-life [5] | Cmax [5] | F, % [5] | GI50 (MV4-11; 72 h) | Half life T1/2, mouse liver microsomes ([2]; 0.5 mg/mL microsomal protein) | Half life T1/2, human liver microsomes ([4]; Human)
1 | CCN(C(=O)c1cc(F)ccc1Oc1nncnc1N1CC2(CCN(C[C@H]3CC[C@]4(CC3)CC(C(C)(C)O)C(=O)N4)CC2)C1)C(C)C (single isomer, unassigned) [Example 58-1a] | 5.4 nM | 17.7 nM | 54.4 nM | 22.9 nM | > 120 min | 69.3 min | 23.7 min | – | – | – | – | – | – | –
2 | CCN(C(=O)c1cc(F)ccc1Oc1cncnc1N1CC2(CCN(C[C@H]3CC[C@@]4(CCC(=O)N4)CC3)CC2)C1)C(C)C [Example 1] | – | 76.2 nM | 580 nM | 277 nM | – | – | – | 5290 ng·h/mL | 90.6 min | 2480 ng/mL | 79% | – | – | –
3 | CC(C)N(C(=O)c1cc(F)ccc1Oc1cncnc1N1CC2(CCN(CC3CC4CCC3CC43CCC(=O)N3)CC2)C1)C(C)C (single isomer, unassigned) [Example 13-1b] | 33.4 nM | – | 63.3 nM | 31.2 nM | – | – | – | 7770 ng·h/mL | 230 min | 2010 ng/mL | 72% | 55.2 nM | – | –
4 | CC(C)N(C(=O)c1cc(F)ccc1Oc1cncnc1N1CC2(CCN(C[C@H]3CC[C@]4(CC3)CC(C)(C)C(=O)N4)CC2)C1)C1CC1 [Example 23] | 12 nM | 20 nM | 157 nM | 77.9 nM | 48.5 min | – | 36.3 min | 2650 ng·h/mL | 151 min | 1510 ng/mL | 119% | – | – | –
5 | CC(C)N(C(=O)c1cc(F)ccc1Oc1nncnc1N1CC2(CCN(CC3CCC4(CC3)COC(=O)N4)CC2)C1)C(C)C (stereo not shown) [Example 49] | 42 nM | 51.3 nM | 110 nM | 108 nM | – | – | – | 2320 ng·h/mL | 66 min | 1350 ng/mL | 77% | – | – | –
6 | CCN(C(=O)c1cc(F)ccc1Oc1nncnc1N1CC2(CCN(CC3CC4CCC3CC43CCC(=O)N3)CC2)C1)C(C)C (single isomer, unassigned) [Example 14-1a] | 49.2 nM | 86.1 nM | – | – | > 120 min | – | 57.3 min | – | – | – | – | – | – | –
7 | COCC1(COC)C[C@]2(CC[C@@H](CN3CCC4(CC3)CN(c3ncncc3Oc3ccc(F)cc3C(=O)N(C(C)C)C(C)C)C4)CC2)NC1=O [Example 18] | 6.3 nM | 12.2 nM | 12.8 nM | 21.2 nM | – | – | – | 4040 ng·h/mL | 80.4 min | 1960 ng/mL | 75% | – | – | –
8 | CC(C)N(C(=O)c1cc(F)ccc1Oc1nncnc1N1CC2(CCN(CC3CCC4(CC3)CN(C)C(=O)N4)CC2)C1)C(C)C (single isomer, unassigned) [Example 47-1] | 20.2 nM | 118 nM | – | – | > 120 min | 77 min | 46.8 min | – | – | – | – | – | – | –
9 | CC(C)c1ncncc1-c1cc(F)ccc1Oc1cncnc1N1CC2(CN(CC3CCC4(CC3)OCCO4)C2)C1 [Control compound 1, reference compound] | 156 nM | – | – | – | – | – | – | – | – | – | – | 82.7 nM | 3.75 min | 4.77 min
